Patent US8026245B2, “HIV replication inhibiting purine derivatives” (Janssen Pharmaceutica N.V., priority 2003, dated 2011)

What was measured:
HIV-1 [1] = conditions: Method A; for pEC50 (−logEC50): MT-4 cells, HIV-infected, MTT, 50% protection; for pSI (pCC50-pEC50): selectivity index, ratio of CC50 to EC50
Method: An […] T4-cell line, MT-4, which was previously shown (Koyanagi et al., Int. J. Cancer, 36, 445-451, 1985) to be highly susceptible to and permissive for HIV infection, served as the target cell line. Inhibition of the HIV-induced cytopathic effect was used as the end point. The viability of both HIV- and mock-infected cells was assessed spectrophotometrically via the in situ reduction of 3-(4,5-dimethylthiazol-2-yl)-2,5-diphenyltetrazolium bromide (MTT). The 50% cytotoxic concentration (CC50 in M) was defined as the concentration of compound that reduced the absorbance of the mock-infected control sample by 50%. The percent protection achieved by the compound in HIV-infected cells was calculated by the following formula:
[formula] whereby (ODT)HIV is the optical density measured with a given concentration of the test compound in HIV-infected cells; (ODC)HIV is the optical density measured for the control untreated HIV-infected cells; (ODC)MOCK is the optical density measured for the control untreated mock-infected cells; all optical density values were determined at 540 nm. The dose achieving 50% protection according to the above formula was defined as the 50% effective concentration (EC50 in M). The ratio of CC50 to EC50 was defined as the selectivity index (SI). Method B

mock-infected MT-4 cells = type: cell-based
Method: An HIV-1 transformed T4-cell line, MT-4, which was previously shown (Koyanagi et al., Int. J. Cancer, 36, 445-451, 1985) to be highly susceptible to and permissive for HIV infection, served as the target cell line. Inhibition of the HIV-induced cytopathic effect was used as the end point. The viability of both HIV- and mock-infected cells was assessed spectrophotometrically via the in situ reduction of 3-(4,5-dimethylthiazol-2-yl)-2,5-diphenyltetrazolium bromide (MTT). The 50% cytotoxic concentration (CC50 in M) was defined as the concentration of compound that reduced the absorbance of the mock-infected control sample by 50%. The percent protection achieved by the compound in HIV-infected cells was calculated by the following formula:

[2] = Method B: cytotoxicity in mock-infected MT-4 cells engineered with GFP under a constitutional promotor; type: cell-based; conditions: human; Method B; mock-infected MT-4 cells with GFP, fluorescence reduced by 50%; read-out: pCC50 (−logCC50) (converted)
Method: In these cells, engineered with GFP (and an HIV-specific promotor), ongoing HIV-infection was measured fluorometrically. Cytotoxicity is measured in the same cells, but engineered with GFP under a constitutional promotor. The infection (or inhibition thereof) of HIV infected cells and the fluorescence of mock-infected cells is assessed by the fluorescent GFP signal generated by the two above mentioned cell lines.
The 50% cytotoxic concentration (CC50 in μM) was defined as the concentration of compound that reduced fluorescence of the mock-infected cells by 50%.

HIV-1 [3] = conditions: Method B; selectivity index, ratio of CC50 to EC50
HIV-1 [4] = assay: microbe, parasite or virus in culture; conditions: Human immunodeficiency virus 1, MT4, read-out: pEC50 (−logEC50) (converted)

Row | Structure (SMILES) | pEC50 (−logEC50) (HIV-1 [1]) [M] | pSI (pCC50-pEC50) (HIV-1 [1]) | pCC50 (−logCC50) (mock-infected MT-4 cells) | CC50 [2] [nM] | pSI (pEC50 − pCC50) (HIV-1 [3]) | EC50 (HIV-1 [4]) [nM]
1 | Cc1cc(C)c(Oc2nc(Nc3ccc(C#N)cc3)nc3[nH]cnc23)c(C)c1 [Compound 23] | 8.2 | <−3.6 | <4.6 | – | – | –
2 | Cc1cc(C)c(Nc2nc(Nc3ccc(C#N)cc3)nc3[nH]cnc23)c(C)c1 [Compound 24] | 8.4 | −4.1 | 4.3 | – | – | –
3 | COc1cc(C)c(Nc2nc(Nc3ccc(C#N)cc3)nc3[nH]cnc23)c(C)c1 [Compound 25] | 8.5 | <−4 | <4.5 | – | – | –
4 | Cc1cc(C#N)cc(C)c1Oc1nc(Nc2ccc(C#N)cc2)nc2[nH]cnc12 [Compound 28] | 9.0 | <−4.4 | <4.6 | – | – | –
5 | CCn1cnc2c(Nc3c(C)cc(/C=C/C#N)cc3OC)nc(Nc3ccc(C#N)cc3)nc21 [Compound 48] | – | – | – | > 25100 | >4.6 | 0.631
6 | COc1cc(/C=C/C#N)cc(C)c1Nc1nc(Nc2ccc(C#N)cc2)nc2c1ncn2CC#N [Compound 52] | – | – | – | 2000 | 3.6 | 0.501
7 | C/C(=C\C#N)c1cc(C)c(Nc2nc(Nc3ccc(C#N)cc3)nc3c2ncn3C)c(C)c1 [Compound 57] | – | – | – | > 25100 | >4.4 | 1
8 | COc1ccc(Cn2cnc3c(Nc4ccc(C#N)cc4)nc(Nc4c(C)cc(C#N)cc4C)nc32)cc1 [Compound 72] | – | – | – | > 25100 | >3.9 | 3.16
9 | COc1ccc(Cn2cnc3c(Nc4ccc(C#N)cc4)nc(Nc4c(C)cc(/C=C/C#N)cc4C)nc32)cc1 [Compound 73] | – | – | – | > 25100 | >3.7 | 5.01
